Activity data for two compounds are collected here from ChEMBL document CHEMBL1667782, “Glucose-lowering activity of novel tetrasaccharide glyceroglycolipids from the fruits of Cucurbita moschata” (2011).

Format in all cases: functional
What all share (details): route intraperitoneal

For experiment [1], the system named is Mus musculus. The experiment in a line: Antidiabetic activity in streptozotocin-induced C57/BL6J mouse diabetic model assessed as serum glucose level at 50 mg/kg, ip after 14 days (reference value: 22.17 +/- 5.63 mmol/L).
In experiment [2] the test system is Mus musculus. The experiment in a line: Antidiabetic activity in streptozotocin-induced C57/BL6J mouse diabetic model assessed as serum glucose level at 50 mg/kg, ip after 7 days (reference value: 22.65 +/- 6.16 mmol/L).
Experiment [3] concerns Mus musculus. The experiment in a line: Antidiabetic activity in streptozotocin-induced C57/BL6J mouse diabetic model assessed as serum glucose level at 50 mg/kg, ip after 28 days (reference value: 23.77 +/- 6.12 mmol/L).
The test system of experiment [4] is Mus musculus. The experiment in a line: Antidiabetic activity in streptozotocin-induced C57/BL6J mouse diabetic model assessed as serum glucose level at 50 mg/kg, ip after 21 days (reference value: 23.89 +/- 6.98 mmol/L).

Take `CCCCC/C=C\C/C=C\CCCCCCCC(=O)OCC(O)CO[C@@H]1O[C@H](CO[C@@H]2O[C@H](CO[C@@H]3O[C@H](CO[C@@H]4O[C@H](CO)[C@H](O)[C@H](O)[C@H]4O)[C@H](O)[C@H](O)[C@H]3O)[C@H](O)[C@H](O)[C@H]2O)[C@H](O)[C@H](O)[C@H]1O` (stereo partly drawn): the Activity in the experiment on Mus musculus [1] was found to be 19.09 mmol/L; in the experiment with Mus musculus [2], 21.47 mmol/L; with Mus musculus [3] it was 15.73 mmol/L; with Mus musculus [4], 18.17 mmol/L.
Taken in the same sequence, the figures for `CC/C=C\C/C=C\C/C=C\CCCCCCCC(=O)OCC(O)CO[C@@H]1O[C@H](CO[C@@H]2O[C@H](CO[C@@H]3O[C@H](CO[C@@H]4O[C@H](CO)[C@H](O)[C@H](O)[C@H]4O)[C@H](O)[C@H](O)[C@H]3O)[C@H](O)[C@H](O)[C@H]2O)[C@H](O)[C@H](O)[C@H]1O` (stereo partly drawn) were 18.27 mmol/L, 20.89 mmol/L, 14.61 mmol/L and 16.36 mmol/L.
